{"source": "patent US6355657B1", "about": "“System for percutaneous delivery of opioid analgesics” (Atrix Laboratories, Inc., priority 1998, dated 2002)", "key": {"[1]": {"assay": "Solubility of loperamide hydrochloride in solvents and solvent mixtures (titration to cloud point, HPLC of saturated solutions)", "format": "physicochemical", "experimental": "The solubility studies of loperamide hydrochloride were initiated using the formulation systems shown in Table I through multiple titrations confirmned by HPLC analysis of saturated solutions. For systems having at least 5% loperamide hydrochloride solubility, the transport of loperamide hydrochloride across the skin was characterized by 500 μL and 20 μL dosing of excised human cadaver skin using a Franz in vitro skin diffusion cell.\nSolvent systems were mixed according to weight. For combinations of solvents that were single phase, loperamide hydrochloride was added in 0.1% increments until the system clouded. This was taken as the approximate saturation value for loperamide hydrochloride in that system. The system was then allowed to remain undisturbed for at least 24 hours. Often large crystals of loperamide hydrochloride would form upon standing. This solution was then filtered, appropriately diluted and assayed according to the HPLC method described below."}, "[2]": {"assay": "Solubility of loperamide hydrochloride in the receptor solution (spiked receptor solutions)", "format": "physicochemical", "conditions": "10% (v/v) N-methyl-2-pyrrolidone in water", "excerpt": "The receptor solution was 10% (v/v) N-methyl-2-pyrrolidone in water."}, "[3]": {"conditions": "cited from earlier work"}}, "note": "Where “and” joins values, the source holds several entries; their conditions need not be identical. Identical values can stand only once. Counter-ions that a name gives are not always drawn. Like-named read-outs stand apart in the source and are kept apart here."}
{"smiles": "CN(C)C(=O)C(CCN1CCC(O)(c2ccc(Cl)cc2)CC1)(c1ccccc1)c1ccccc1", "note": "[loperamide hydrochloride, 4-(p-chlorophenyl)-4-hydroxy-N,N-dimethyl-α,(α-diphenyl-1-piperidinebutyramide hydrochloride]", "values": [{"measurement": "loperamide hydrochloride solubility", "setting": "[1]; 1:1:1 propylene glycol:ethanol:ethyl acetate", "value": "greater than 5 % (w/w)"}, {"measurement": "loperamide hydrochloride solubility", "setting": "[1]; 1:1:4:3 N-methyl-2-pyrrolidone:propylene glycol:alcohol:water", "value": "greater than 6 % (w/w)"}, {"measurement": "loperamide hydrochloride solubility", "setting": "[1]; 1:1:4:5 N-methyl-2-pyrrolidone:ethyl acetate:ethanol:water", "value": "greater than 5 % (w/w)"}, {"measurement": "loperamide hydrochloride solubility", "setting": "[1]; 10% (v/v) water, 18% (v/v) N-methyl-2-pyrrolidone and 72% (v/v) ethanol ternary blend (FIG. 4)", "value": "19 % (w/w)"}, {"measurement": "loperamide hydrochloride solubility", "setting": "[1]; 60/40 propylene glycol/ethyl acetate solvent blend (FIG. 2)", "value": "18 % (w/w)"}, {"measurement": "loperamide hydrochloride solubility", "setting": "[1]; combination of propylene carbonate and ethanol, ratio not stated (FIG. 1)", "value": "exceeded 20 % (w/w)"}, {"measurement": "loperamide hydrochloride in solution", "setting": "[1]; formulations of mixtures of water, alcohols and organic solvents, ambient temperatures", "value": "up to 30 % (w/w)"}, {"measurement": "loperamide hydrochloride solubility", "setting": "[1]; most non-aqueous organic solvents (exceptions NMP, propylene glycol, ethanol)", "value": "less than 1 % (w/w)"}, {"measurement": "Loperamide hydrochloride Solubility (w/w)", "setting": "[1]; solvent Ethanol, hydrochloride", "value": "10 % (w/w)"}, {"measurement": "Loperamide hydrochloride Solubility (w/w)", "setting": "[1]; solvent Isopropyl Myristate", "value": "0.001% (w/w)"}, {"measurement": "Loperamide hydrochloride Solubility (w/w)", "setting": "[1]; solvent N-methyl-2-pyrrolidone, hydrochloride", "value": "16 % (w/w)"}, {"measurement": "Loperamide hydrochloride Solubility (w/w)", "setting": "[1]; solvent Propylene Glycol, hydrochloride", "value": "9 % (w/w) and 8 % (w/w)"}, {"measurement": "loperamide hydrochloride solubility", "setting": "[1]; the solvents of Table 1 except N-methyl-2-pyrrolidone, ethanol and propylene glycol", "value": "≤ 0.5 % (w/w)"}, {"measurement": "solubility of loperamide hydrochloride in receptor solution", "setting": "[2]", "value": "greater than 380 ppm"}, {"measurement": "solubility", "setting": "[3]; 2-butanone", "value": 0.18, "unit": "grams per 100 mL solvent"}, {"measurement": "solubility", "setting": "[3]; 2-propanol", "value": 1.11, "unit": "grams per 100 mL solvent"}, {"measurement": "solubility", "setting": "[3]; 4-methyl-2-pentanone", "value": 0.020, "unit": "grams per 100 mL solvent"}, {"measurement": "solubility", "setting": "[3]; N,N-dimethylformamide", "value": 10.3, "unit": "grams per 100 mL solvent"}, {"measurement": "solubility", "setting": "[3]; acetone", "value": 0.20, "unit": "grams per 100 mL solvent"}, {"measurement": "solubility", "setting": "[3]; citrate-phosphate buffer (pH 6.1)", "value": 0.008, "unit": "grams per 100 mL solvent"}, {"measurement": "solubility", "setting": "[3]; citrate-phosphate buffer (pH 7.9)", "value": "less than 0.001 grams per 100 mL solvent"}, {"measurement": "solubility", "setting": "[3]; dichloromethane", "value": 35.1, "unit": "grams per 100 mL solvent"}, {"measurement": "solubility", "setting": "[3]; diethyl ether", "value": "less than 0.001 grams per 100 mL solvent"}, {"measurement": "solubility", "setting": "[3]; dimethylsulfoxide", "value": 20.5, "unit": "grams per 100 mL solvent"}, {"measurement": "solubility", "setting": "[3]; ethanol", "value": 5.37, "unit": "grams per 100 mL solvent"}, {"measurement": "solubility", "setting": "[3]; ethyl acetate", "value": 0.035, "unit": "grams per 100 mL solvent"}, {"measurement": "solubility", "setting": "[3]; hexane", "value": "less than 0.001 grams per 100 mL solvent"}, {"measurement": "solubility", "setting": "[3]; methanol", "value": 28.6, "unit": "grams per 100 mL solvent"}, {"measurement": "solubility", "setting": "[3]; polyethylene glycol 400", "value": 1.40, "unit": "grams per 100 mL solvent"}, {"measurement": "solubility", "setting": "[3]; propylene glycol", "value": 5.64, "unit": "grams per 100 mL solvent"}, {"measurement": "solubility", "setting": "[3]; tetrahydrofuran", "value": 0.32, "unit": "grams per 100 mL solvent"}, {"measurement": "solubility", "setting": "[3]; toluene", "value": 0.001, "unit": "grams per 100 mL solvent"}, {"measurement": "solubility", "setting": "[3]; water (at physiological pH)", "value": 0.002, "unit": "grams per 100 mL solvent"}, {"measurement": "solubility", "setting": "[3]; water (pH 1.7)", "value": 0.14, "unit": "grams per 100 mL solvent"}]}
